Here are results for 20 compounds from ChEMBL document CHEMBL6083280, “De Novo Discovery of a Noncovalent Cell-Penetrating Bicyclic Peptide Inhibitor Targeting SARS-CoV-2 Main Protease” (J Med Chem, 2024).

Structures are written as SMILES. Calls of active or inactive are those of the source. No cut-off for these calls is given here. Positions of bridges follow the written chain, without caps; N, C: chain ends. Residues, ends and D or L forms follow the SMILES beside them.

Assay [1] concerns the target Replicase polyprotein 1ab (Severe acute respiratory syndrome coronavirus 2, UniProt P0DTD1). Briefly: Inhibition of N-terminal his-tagged SARS-CoV-2 Main protease expressed in Escherichia coli BL21 (DE3) using Dabcyl-TSAVLWSGFRICMK-Edans as substrate preincubated for 10 mins by microplate reader analysis.
For assay [2], the system named is SARS-CoV-2. The assay can be described thus: Antiviral activity against SARS-CoV-2 infected in human Caco-2 cells assessed as inhibition of viral infection preincubated for 1 hr followed by viral infection measured after 48 hrs by CQ1 confocal quantitative image cytometer analysis. Type of assay: functional, organism-based. The following applies: for EC50: Severe acute respiratory syndrome coronavirus 2, Caco-2; for Activity: Severe acute respiratory syndrome coronavirus 2, time 49.0 hrs.

For orientation: IC50 means the concentration at which inhibition is half-maximal. A lower IC50 goes with higher potency. Take `CC(C)C[C@@H]1NC(=O)[C@H](Cc2ccccc2)NC(=O)[C@@H]2CCCN2C(=O)[C@H]([C@@H](C)O)NC(=O)[C@H]([C@@H](C)O)NC(=O)[C@H]([C@@H](C)O)NC(=O)[C@H](C)NC(=O)[C@H](Cc2ccccc2)NC(=O)[C@H]([C@@H](C)O)NC(=O)[C@H](C(C)C)NC(=O)[C@@H](Cc2ccc(O)cc2)NC(=O)CSC[C@@H](C(=O)NCC(N)=O)NC(=O)[C@@H]2CCCN2C(=O)[C@@H]2CCCN2C1=O`: in assay [1], the IC50 is greater than 10000 nM.

The term EC50 denotes the concentration needed to bring the measured effect to its halfway point. With `CC(C)C[C@@H]1NC(=O)[C@H](Cc2ccccc2)NC(=O)[C@@H]2CCCN2C(=O)[C@H]([C@@H](C)O)NC(=O)[C@H]([C@@H](C)O)NC(=O)[C@H]([C@@H](C)O)NC(=O)[C@H](Cc2c[nH]cn2)NC(=O)[C@H](Cc2ccccc2)NC(=O)[C@H]([C@@H](C)O)NC(=O)[C@H](C(C)C)NC(=O)[C@@H](Cc2ccc(O)cc2)NC(=O)CC[C@@H](C(=O)NCC(N)=O)NC(=O)[C@@H]2CCCN2C(=O)[C@@H]2CCCN2C1=O`, the EC50 in assay [2] is greater than 100000 nM. Besides, in assay [1], it took 150 nM to reach half-maximal inhibition (IC50).

`CC(C)C[C@@H]1NC(=O)[C@H](Cc2ccccc2)NC(=O)[C@@H]2CCCN2C(=O)[C@H]([C@@H](C)O)NC(=O)[C@H]([C@@H](C)O)NC(=O)[C@H]([C@@H](C)O)NC(=O)[C@H](Cc2c[nH]cn2)NC(=O)[C@H](Cc2ccccc2)NC(=O)[C@H]([C@@H](C)O)NC(=O)[C@H](C(C)C)NC(=O)[C@@H](Cc2ccc(O)cc2)NC(=O)CSC[C@@H](C(=O)NCC(N)=O)NC(=O)[C@@H]2CCCN2C(=O)[C@H](C)NC1=O` had a 50% inhibitory concentration (IC50) in assay [1] of 610 nM.

`CC(C)C[C@@H]1NC(=O)[C@H](Cc2ccccc2)NC(=O)[C@@H]2CCCN2C(=O)[C@H]([C@@H](C)O)NC(=O)[C@H]([C@@H](C)O)NC(=O)[C@H]([C@@H](C)O)NC(=O)[C@H](Cc2c[nH]cn2)NC(=O)[C@H](Cc2ccccc2)NC(=O)[C@H](C)NC(=O)[C@H](C(C)C)NC(=O)[C@@H](Cc2ccc(O)cc2)NC(=O)CSC[C@@H](C(=O)NCC(N)=O)NC(=O)[C@@H]2CCCN2C(=O)[C@@H]2CCCN2C1=O` showed an IC50 in assay [1] of 1650 nM.

In assay [1], `CC(C)C[C@@H]1NC(=O)[C@H](C)NC(=O)[C@@H]2CCCN2C(=O)[C@H]([C@@H](C)O)NC(=O)[C@H]([C@@H](C)O)NC(=O)[C@H]([C@@H](C)O)NC(=O)[C@H](Cc2c[nH]cn2)NC(=O)[C@H](Cc2ccccc2)NC(=O)[C@H]([C@@H](C)O)NC(=O)[C@H](C(C)C)NC(=O)[C@@H](Cc2ccc(O)cc2)NC(=O)CSC[C@@H](C(=O)NCC(N)=O)NC(=O)[C@@H]2CCCN2C(=O)[C@@H]2CCCN2C1=O` came in with a concentration for half-maximal inhibition (IC50) of 5780 nM.

`CC(C)C[C@@H]1NC(=O)[C@H](Cc2ccccc2)NC(=O)[C@@H]2CCCN2C(=O)[C@H]([C@@H](C)O)NC(=O)[C@H]([C@@H](C)O)NC(=O)[C@H]([C@@H](C)O)NC(=O)[C@H](Cc2c[nH]cn2)NC(=O)[C@H](Cc2ccccc2)NC(=O)[C@H]([C@@H](C)O)NC(=O)[C@H](C)NC(=O)[C@@H](Cc2ccc(O)cc2)NC(=O)CSC[C@@H](C(=O)NCC(N)=O)NC(=O)[C@@H]2CCCN2C(=O)[C@@H]2CCCN2C1=O` showed an IC50 in assay [1] greater than 10000 nM.

On to `CC[C@H](C)[C@@H]1NC(=O)[C@@H](Cc2ccc(O)cc2)NC(=O)CSC[C@@H](C(N)=O)NC(=O)[C@H](C(C)C)NC(=O)[C@H](CC(C)C)NC(=O)[C@@H]2CCCN2C(=O)[C@H](Cc2ccccc2)NC(=O)[C@H]([C@@H](C)O)NC(=O)[C@H](Cc2c[nH]cn2)NC1=O`, for which the outcome in assay [2] was inactive. In assay [1], this compound gave an IC50 of 1400 nM.

For the compound `CC[C@H](C)[C@@H]1NC(=O)[C@@H](Cc2ccc(O)cc2)NC(=O)CSC[C@@H](C(N)=O)NC(=O)[C@H](C(C)C)NC(=O)[C@H](CC(C)C)NC(=O)[C@@H]2CCCN2C(=O)[C@H](Cc2ccccc2)NC(=O)[C@H]([C@@H](C)O)NC(=O)[C@H](CCC(N)=O)NC1=O`, the outcome in assay [2] was inactive. The compound also had a 50% inhibitory concentration (IC50) in assay [1] of 1400 nM.

Regarding `CC[C@H](C)[C@@H]1NC(=O)[C@H](Cc2c[nH]cn2)NC(=O)[C@H](CO)NC(=O)[C@H](Cc2ccccc2)NC(=O)[C@H](Cc2ccc(O)cc2)NC(=O)[C@H](CCC(N)=O)NC(=O)[C@H]([C@@H](C)O)NC(=O)[C@H](Cc2ccc(O)cc2)NC(=O)CSC[C@@H](C(=O)N[C@@H](CO)C(=O)N[C@@H](CO)C(=O)N[C@@H](CCCNC(=N)N)C(=O)N[C@@H](CO)C(=O)NCC(N)=O)NC1=O` ({CH2CO}-YTQYFSHICSSRSG-NH2; thioether N-9), the IC50 in assay [1] is greater than 100000 nM.

Turning to `CC(C)[C@@H]1NC(=O)[C@@H](Cc2ccc(O)cc2)NC(=O)CC[C@@H](C(N)=O)NC(=O)[C@@H]2CCCN2C(=O)[C@@H]2CCCN2C(=O)[C@@H]2CSc3c(F)c(F)c(c(F)c3F)SC[C@H](NC1=O)C(=O)N[C@@H](Cc1ccccc1)C(=O)N[C@@H](Cc1c[nH]cn1)C(=O)N[C@@H]([C@@H](C)O)C(=O)N[C@@H]([C@@H](C)O)C(=O)N[C@@H]([C@@H](C)O)C(=O)N1CCC[C@H]1C(=O)N[C@@H](Cc1ccccc1)C(=O)N2`, in assay [2], the EC50 is greater than 100000 nM. The compound further yielded an IC50 in assay [1] of 16600 nM.

For the compound `CC(C)C[C@@H]1NC(=O)[C@H](Cc2ccccc2)NC(=O)[C@@H]2CCCN2C(=O)[C@H]([C@@H](C)O)NC(=O)[C@H]([C@@H](C)O)NC(=O)[C@H]([C@@H](C)O)NC(=O)[C@H](Cc2c[nH]cn2)NC(=O)[C@H](Cc2ccccc2)NC(=O)[C@H]([C@@H](C)O)NC(=O)[C@H](C(C)C)NC(=O)[C@@H](Cc2ccc(O)cc2)NC(=O)CSC[C@@H](C(=O)NCC(N)=O)NC(=O)[C@H](C)NC(=O)[C@@H]2CCCN2C1=O`, the half-inhibitory concentration (IC50) in assay [1] came to 1930 nM.

As for `CC(C)C[C@@H]1NC(=O)[C@H](Cc2ccccc2)NC(=O)[C@@H]2CCCN2C(=O)[C@H]([C@@H](C)O)NC(=O)[C@H]([C@@H](C)O)NC(=O)[C@H]([C@@H](C)O)NC(=O)[C@H](Cc2c[nH]cn2)NC(=O)[C@H](C)NC(=O)[C@H]([C@@H](C)O)NC(=O)[C@H](C(C)C)NC(=O)[C@@H](Cc2ccc(O)cc2)NC(=O)CSC[C@@H](C(=O)NCC(N)=O)NC(=O)[C@@H]2CCCN2C(=O)[C@@H]2CCCN2C1=O`, the IC50 in assay [1] is greater than 10000 nM.

Regarding `CC(C)C[C@@H]1NC(=O)[C@H](Cc2ccccc2)NC(=O)[C@@H]2CCCN2C(=O)[C@H]([C@@H](C)O)NC(=O)[C@H](C)NC(=O)[C@H]([C@@H](C)O)NC(=O)[C@H](Cc2c[nH]cn2)NC(=O)[C@H](Cc2ccccc2)NC(=O)[C@H]([C@@H](C)O)NC(=O)[C@H](C(C)C)NC(=O)[C@@H](Cc2ccc(O)cc2)NC(=O)CSC[C@@H](C(=O)NCC(N)=O)NC(=O)[C@@H]2CCCN2C(=O)[C@@H]2CCCN2C1=O`, the half-maximal inhibitory concentration (IC50) in assay [1] worked out at 200 nM.

As for `CC(C)C[C@@H]1NC(=O)[C@H](Cc2ccccc2)NC(=O)[C@@H]2CCCN2C(=O)[C@H]([C@@H](C)O)NC(=O)[C@H]([C@@H](C)O)NC(=O)[C@H]([C@@H](C)O)NC(=O)[C@H](Cc2c[nH]cn2)NC(=O)[C@H](Cc2cccc(F)c2)NC(=O)[C@H]([C@@H](C)O)NC(=O)[C@H](C(C)C)NC(=O)[C@@H](Cc2ccc(O)cc2)NC(=O)CSC[C@@H](C(=O)NCC(N)=O)NC(=O)[C@@H]2CCCN2C(=O)[C@@H]2CCCN2C1=O`, in assay [2], the EC50 was greater than 100000 nM. In addition, it took 250 nM to reach half-maximal inhibition in assay [1] (IC50).

Take `CC(C)C[C@@H]1NC(=O)[C@H](Cc2ccccc2)NC(=O)[C@@H]2CCCN2C(=O)[C@H]([C@@H](C)O)NC(=O)[C@H]([C@@H](C)O)NC(=O)[C@H](C)NC(=O)[C@H](Cc2c[nH]cn2)NC(=O)[C@H](Cc2ccccc2)NC(=O)[C@H]([C@@H](C)O)NC(=O)[C@H](C(C)C)NC(=O)[C@@H](Cc2ccc(O)cc2)NC(=O)CSC[C@@H](C(=O)NCC(N)=O)NC(=O)[C@@H]2CCCN2C(=O)[C@@H]2CCCN2C1=O`: the IC50 in assay [1] came out at 510 nM.

Compound `CC(C)C[C@@H]1NC(=O)[C@H](Cc2ccccc2)NC(=O)[C@H](C)NC(=O)[C@H]([C@@H](C)O)NC(=O)[C@H]([C@@H](C)O)NC(=O)[C@H]([C@@H](C)O)NC(=O)[C@H](Cc2c[nH]cn2)NC(=O)[C@H](Cc2ccccc2)NC(=O)[C@H]([C@@H](C)O)NC(=O)[C@H](C(C)C)NC(=O)[C@@H](Cc2ccc(O)cc2)NC(=O)CSC[C@@H](C(=O)NCC(N)=O)NC(=O)[C@@H]2CCCN2C(=O)[C@@H]2CCCN2C1=O` had a half-inhibitory concentration (IC50) in assay [1] of 390 nM.

Consider `CC(C)[C@@H]1NC(=O)[C@@H](Cc2ccc(O)cc2)NC(=O)CC[C@@H](C(=O)NCC(N)=O)NC(=O)[C@@H]2CCCN2C(=O)[C@@H]2CCCN2C(=O)[C@@H]2CSCc3cccc(c3)CSC[C@H](NC1=O)C(=O)N[C@@H](Cc1ccccc1)C(=O)N[C@@H](Cc1c[nH]cn1)C(=O)N[C@@H]([C@@H](C)O)C(=O)N[C@@H]([C@@H](C)O)C(=O)N[C@@H]([C@@H](C)O)C(=O)N1CCC[C@H]1C(=O)N[C@@H](Cc1ccccc1)C(=O)N2`, for which, in assay [2], the EC50 is greater than 100000 nM. Also, the half-maximal inhibitory concentration (IC50) in assay [1] turned out to be 440 nM.

Consider `CC[C@H](C)[C@@H]1NC(=O)[C@@H](Cc2ccc(O)cc2)NC(=O)CSC[C@@H](C(N)=O)NC(=O)[C@H]([C@@H](C)CC)NC(=O)[C@@H]2CCCN2C(=O)[C@@H]2CCCN2C(=O)[C@H](Cc2ccccc2)NC(=O)[C@H](CO)NC(=O)[C@H](CCC(N)=O)NC1=O`, for which, in assay [2], the outcome was inactive. The IC50 in assay [1] stood at 1400 nM.

On to `CC(C)C[C@@H]1NC(=O)[C@H](Cc2ccccc2)NC(=O)[C@@H]2CCCN2C(=O)[C@H](C)NC(=O)[C@H]([C@@H](C)O)NC(=O)[C@H]([C@@H](C)O)NC(=O)[C@H](Cc2c[nH]cn2)NC(=O)[C@H](Cc2ccccc2)NC(=O)[C@H]([C@@H](C)O)NC(=O)[C@H](C(C)C)NC(=O)[C@@H](Cc2ccc(O)cc2)NC(=O)CSC[C@@H](C(=O)NCC(N)=O)NC(=O)[C@@H]2CCCN2C(=O)[C@@H]2CCCN2C1=O`, for which, in assay [1], half-maximal inhibition (IC50) was put at 220 nM.

As to `CC(C)[C@@H]1NC(=O)[C@@H](Cc2ccc(O)cc2)NC(=O)CSC[C@@H](C(=O)NCC(N)=O)NC(=O)[C@@H]2CCCN2C(=O)[C@@H]2CCCN2C(=O)[C@H](C)NC(=O)[C@H](Cc2ccccc2)NC(=O)[C@@H]2CCCN2C(=O)[C@H]([C@@H](C)O)NC(=O)[C@H]([C@@H](C)O)NC(=O)[C@H]([C@@H](C)O)NC(=O)[C@H](Cc2c[nH]cn2)NC(=O)[C@H](Cc2ccccc2)NC(=O)[C@H]([C@@H](C)O)NC1=O`, the IC50 in assay [1] was 370 nM.
